Reference: patent US20200316067A1, “COMBINATION OF RAF INHIBITORS AND TAXANES” (DOT Therapeutics-1, Inc., priority 2014, published 2020)

Columns and labels:
[1] = system: N-Ras mutated SK-MEL-2 human melanoma xenograft; experiment: In vivo tumor efficacy, N-Ras mutated SK-MEL-2 human melanoma xenograft model; set-up: species or system Mouse (Mus musculus) Athymic NCr-nu/nu; settings: Day 20
[2] = Body weight loss in the SK-MEL-2 xenograft study; format: in vivo, Mouse (Mus musculus) Athymic NCr-nu/nu
Experimental: Tumor size and body weight were measured BIW beginning on the first day of treatment. Animals were terminated when their tumor reached approximately 2000 mm^3, and the study was terminated on Day 62 post treatment initiation.

[3] = system: Calu-6 lung cancer model (KRAS Q61K); experiment: In vivo tumor efficacy, KRAS mutated Calu-6 human lung carcinoma model; set-up: species or system Mouse (Mus musculus) Athymic Balb/c Nude; settings: for TGI: Day 21
[4] = Body weight loss in the Calu-6 xenograft study; format: in vivo, Mouse (Mus musculus) Athymic Balb/c Nude
Experimental: Each animal was inoculated with 2×10^6 Calu-6 tumor cells (in 0.1 mL, 1:1 with Matrigel) at the right flank for tumor model development. Body weight and the tumor growth were monitored twice weekly. Tumor size was measured to the nearest 0.1 mm using vernier caliper and applying the formula V=W^2×L/2, where V=volume, W=width, and L=length for the tumor xenograft. Xenografts were allowed to grow until they reached an average size of approximately 220 mm^3 after 14 days.
Tumor size and body weight were measured twice weekly beginning on the day of animal grouping. The study was terminated on Day 35 post treatment initiation.

[5] = system: tumor cells with N-Ras mutation and K-Ras mutation, B-Raf wild type genetic background; experiment: Activity against tumor cells with MAPK pathway activation by upstream signaling; format: cell-based
[6] = system: melanoma tumor cells which developed resistance to vemurafenib; experiment: Activity against vemurafenib-resistant melanoma tumor cells; format: cell-based
[7] = Compound A 12.5 mg/kg PO QD Days 1-21

CC(=O)O[C@@]12CO[C@@H]1C[C@H](O)[C@@]1(C)C(=O)[C@H](O)C3=C(C)[C@@H](OC(=O)[C@H](O)[C@@H](NC(=O)OC(C)(C)C)c4ccccc4)C[C@@](O)([C@@H](OC(=O)c4ccccc4)[C@H]21)C3(C)C [docetaxel, reference compound]
TGI ([1]; docetaxel 7.5 mg/kg IV QW): 74.9%
Mean Maximum BWL ([2]; docetaxel 7.5 mg/kg IV QW, Day 14): 15% (Day 14)
ΔAUC ([3]; docetaxel 5 mg/kg IV QW): 9.0
TGI ([3]; docetaxel 5 mg/kg IV QW): 5.2%
ΔAUC ([3]; docetaxel 7.5 mg/kg IV QW): 18.4
TGI ([3]; docetaxel 7.5 mg/kg IV QW): 17.7%
Mean Maximum % BWL ([4]; docetaxel 5 mg/kg IV QW, Day 0 to Day 21): 0%
Mean Maximum % BWL ([4]; docetaxel 7.5 mg/kg IV QW, Day 21): 2.5% (Day 21)

C[C@@H](NC(=O)c1ncnc(N)c1Cl)c1ncc(C(=O)Nc2cc(C(F)(F)F)c(Cl)cn2)s1 [Compound A, (R)-2-(1-(6-amino-5-chloropyrimidine-4-carboxamide)ethyl)-N-(5-chloro-4-(trifluoromethyl)pyridin-2-yl)thiazole-5-carboxamide]
TGI ([1]; Compound A 50 mg/kg PO BIW): 62.9%
Mean Maximum BWL ([2]; Compound A 12.5 mg/kg PO QD Days 0-20, Days 3 and 10): 1% (Days 3
Mean Maximum BWL ([2]; Compound A 50 mg/kg PO BIW, Day 17): 4% (Day 17)
ΔAUC [3, 7]: 55.4
TGI [3, 7]: 58.9%
ΔAUC ([3]; Compound A 50 mg/kg PO BIW): 62.7
TGI ([3]; Compound A 50 mg/kg PO BIW): 59.4%
Mean Maximum % BWL ([4]; Compound A 12.5 mg/kg PO QD, Day 0 to Day 21): 0%
Mean Maximum % BWL ([4]; Compound A 50 mg/kg PO BIW, Day 7): −0.1% (Day 7)
activity against tumor cells [5]: active
activity against tumor cells [6]: active
